Measurements from US20250009763A1, “METHODS FOR EXTENDING LIFESPAN AND/OR DELAYING AGING” (priority 2023, published 2025).

Key:
[1] = test system: intracellular NAD^+ of WT yeast cells (BY4741); assay: Intracellular NAD^+ content; assay type: cell-based, Saccharomyces cerevisiae; details: 25 μM, 2 hours; FIG. 2B
Experimental: WT yeast cells (BY4741; […] per group) were incubated in the presence of DMSO (control) or PN6 (25 μM), or cultured in YEPD medium adjusted to CR 0.1%, for 2 hours, before being harvested. The harvested cells were extracted with 250 μl of 1 M glacial formic acid saturated with butanol, incubated for 30 minutes on ice. Then, 62.5 μl of 100% trichloroacetic acid (TCA) (w/v) was added to each sample, and the samples were incubated on ice for an additional 15 minutes. The samples were pelleted by centrifugation at 17,000×g and 4° C. for 5 minutes, and the supernatant was transferred to another eppendorf tube. […]
For analysis, each supernatant or standard sample was divided into two sets: the control set and the test set (150 μl per set), each of which was assembled with an alcohol dehydrogenase (ADH) reaction buffer (345 μl, containing 360 mM Tris (pH 9.7), 240 mM lysine, 0.24% (v/v) EtOH). […] After incubation at room temperature for 10 minutes, the absorbance at 340 nm of each sample was measured by a microplate reader. To determine the NAD^+ levels in each supernatant or standard sample, the absorbance values of the test set (the ADH catalytic set) were divided by the corresponding values of the control set (the water set), which represented the basal NADH levels.

SIRT1 [2] = biological target: T1, SIRT1 (Homo sapiens, UniProt Q96EB6); assay: Acetylation of p53 (K382) via UV irradiation, western blot, U2OS cells; assay type: cell-based; details: 10-100 μM PN6, FIGS. 2C-2D
T1 construct: endogenous in cells; host or cells: U2OS cells; IMR90 cells
T1 sequence (Q96EB6 1-747): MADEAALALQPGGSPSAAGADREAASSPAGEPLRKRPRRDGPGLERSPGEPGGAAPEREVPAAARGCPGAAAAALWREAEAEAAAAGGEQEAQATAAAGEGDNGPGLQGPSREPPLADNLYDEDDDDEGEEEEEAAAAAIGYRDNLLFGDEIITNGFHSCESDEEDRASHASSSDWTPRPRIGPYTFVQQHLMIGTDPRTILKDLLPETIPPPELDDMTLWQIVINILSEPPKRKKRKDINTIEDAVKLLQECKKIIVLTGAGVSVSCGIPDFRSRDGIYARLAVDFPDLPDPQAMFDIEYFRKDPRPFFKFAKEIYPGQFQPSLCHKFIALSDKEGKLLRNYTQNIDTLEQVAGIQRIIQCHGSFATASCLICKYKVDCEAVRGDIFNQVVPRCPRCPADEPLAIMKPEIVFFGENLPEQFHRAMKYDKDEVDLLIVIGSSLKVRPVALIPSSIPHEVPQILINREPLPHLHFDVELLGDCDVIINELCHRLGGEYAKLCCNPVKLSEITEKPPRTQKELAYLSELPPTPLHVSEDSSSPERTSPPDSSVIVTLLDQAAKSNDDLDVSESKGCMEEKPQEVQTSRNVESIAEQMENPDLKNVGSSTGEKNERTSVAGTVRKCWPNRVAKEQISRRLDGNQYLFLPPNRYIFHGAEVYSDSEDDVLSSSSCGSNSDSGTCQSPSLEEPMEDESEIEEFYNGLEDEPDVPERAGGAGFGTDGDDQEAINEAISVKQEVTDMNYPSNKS
Experimental: (§1) U2OS cells (1.2×10^5 cells/dish) or IMR90 cells (3.0×10^5 cells/dish) were seeded into a 3.5 cm culture dish, and incubated with 0, 10, 25, 50, or 100 μM PN6 for 16 hours, before subjected to UVB irradiation at 7.5 mJ/m^2 (for U2OS cells) or 5.0 mJ/m^2 (for IMR90 cells) for 4 hours.
(§2) Cells were harvested with a 1.25× Laemmli buffer and lysed in RIPA lysis buffer containing 1% of Triton X-100 and a protease inhibitor cocktail, and total protein concentrations were measured with a protein assay kit. Proteins in the samples of the lysates with the same amounts of total protein were separated by sodium dodecyl sulfate polyacrylamide gel electrophoresis (SDS-PAGE) (10% polyacrylamide gels) and analyzed by immunoblotting. Primary antibodies against p53ac (K382) (1:1,000), p21 (1:1,000), and 3-actin (1:200,000) were applied to detect the corresponding proteins. Horseradish peroxidase (HRP)-conjugated secondary antibodies against mouse IgG were then incubated with the membranes, and proteins were visualized by chemiluminescence according to the manufacturer's instructions. Protein quantification was performed by software.

SIRT1 [3] = biological target: T1, SIRT1; assay: Acetylation of p53 (K382) via UV irradiation, western blot, IMR90 cells; assay type: cell-based; details: FIGS. 2G-2H
Experimental: as §1, §2

aged C57BL/6J mice = assay: Visible changes in appearance of aged mice; assay type: in vivo, mouse; details: chow containing 50 mg/kg PN6
Experimental: All animal procedures were conducted under protocols (Protocol #CGU108-134) that complied with relevant regulations and approved by Research Guidelines for the Care and Use of Laboratory Animals, Chang Guan University. Male C57BL/6J male mice (at 34 weeks of age) obtained from National Laboratory Animal Center (NLAC) were maintained at 23±1° C. and at humidity of 45-70% with a 12 hour dark/light cycle (7:00 am/pm lights on/off). After reaching 50 weeks of age, the mice were randomly divided into two groups: Group I (SD), fed a standard rodent chow (n=27); and Group II (PN6), fed a standard rodent chow containing 50 mg/kg PN6 (n=10). Animals had ad libitum access to food and water throughout the study (the mice were sacrificed at 131 weeks of age), during which their body weight and food intake were measured weekly.

SMILES: CCC(CC[C@@H](C)C1CCC2C3CC(=O)[C@H]4C[C@@H](O)CC[C@]4(C)C3CC[C@@]21C)C(C)C (stereo in doubt) [PN6, (24S)-3β-hydroxy-5α-stigmastan-6-one]
- NAD^+ content of yeast [1]: significantly increased
- degree of acetylation of P53 at K382 (SIRT1 [2]): decreased in a dose-dependent manner
- SIRT1 activity / acetylation of P53 at K382 (SIRT1 [3]): increased SIRT1 activity to reverse acetylation of P53 at K382
- Hair graying (aged C57BL/6J mice): 25%
- Kyphosis (aged C57BL/6J mice): 13%
- Muscle weakness (aged C57BL/6J mice): 13%
